Data: patent publication US8143259B2, “Cold menthol receptor antagonists” (Janssen Pharmaceutica, NV, priority 2008, dated 2012)
Several values for one entry are separate records, joined by “and”; a condition that tells them apart may be missing. Equal entries are not always repeated.

Target: T1, canine TRPM8 (Canis lupus familiaris, UniProt Q1A7N1)
T1 construct: expressed in transfected cells
Assay: In Vitro Canine TRPM8 Functional Assay (Ca2+ fluorescence, icilin activation)
Assay type: cell-based
Conditions: for IC50: HEK293 cells stably expressing canine TRPM8, icilin activation, Ca2+ fluorescence; for % Inh @ 0.2 μM: 0.2 μM compound; for % Inh @ 0.2 μM / inhibition at 0.2 µM: canine TRPM8 HEK293, icilin; for inhibition at 0.2 µM: HEK293, 0.2 μM compound
Summary of the method: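 HEK293 cells stably expressing canine TRPM8, loaded with Calcium 3 dye; compounds added 5 min before icilin at a concentration giving ~80% maximal response. Peak icilin-evoked Ca2+ fluorescence, basal-subtracted and normalised to maximal response, fitted by sigmoidal nonlinear regression; quadruplicate wells.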

T1 sequence (Q1A7N1 1-1104): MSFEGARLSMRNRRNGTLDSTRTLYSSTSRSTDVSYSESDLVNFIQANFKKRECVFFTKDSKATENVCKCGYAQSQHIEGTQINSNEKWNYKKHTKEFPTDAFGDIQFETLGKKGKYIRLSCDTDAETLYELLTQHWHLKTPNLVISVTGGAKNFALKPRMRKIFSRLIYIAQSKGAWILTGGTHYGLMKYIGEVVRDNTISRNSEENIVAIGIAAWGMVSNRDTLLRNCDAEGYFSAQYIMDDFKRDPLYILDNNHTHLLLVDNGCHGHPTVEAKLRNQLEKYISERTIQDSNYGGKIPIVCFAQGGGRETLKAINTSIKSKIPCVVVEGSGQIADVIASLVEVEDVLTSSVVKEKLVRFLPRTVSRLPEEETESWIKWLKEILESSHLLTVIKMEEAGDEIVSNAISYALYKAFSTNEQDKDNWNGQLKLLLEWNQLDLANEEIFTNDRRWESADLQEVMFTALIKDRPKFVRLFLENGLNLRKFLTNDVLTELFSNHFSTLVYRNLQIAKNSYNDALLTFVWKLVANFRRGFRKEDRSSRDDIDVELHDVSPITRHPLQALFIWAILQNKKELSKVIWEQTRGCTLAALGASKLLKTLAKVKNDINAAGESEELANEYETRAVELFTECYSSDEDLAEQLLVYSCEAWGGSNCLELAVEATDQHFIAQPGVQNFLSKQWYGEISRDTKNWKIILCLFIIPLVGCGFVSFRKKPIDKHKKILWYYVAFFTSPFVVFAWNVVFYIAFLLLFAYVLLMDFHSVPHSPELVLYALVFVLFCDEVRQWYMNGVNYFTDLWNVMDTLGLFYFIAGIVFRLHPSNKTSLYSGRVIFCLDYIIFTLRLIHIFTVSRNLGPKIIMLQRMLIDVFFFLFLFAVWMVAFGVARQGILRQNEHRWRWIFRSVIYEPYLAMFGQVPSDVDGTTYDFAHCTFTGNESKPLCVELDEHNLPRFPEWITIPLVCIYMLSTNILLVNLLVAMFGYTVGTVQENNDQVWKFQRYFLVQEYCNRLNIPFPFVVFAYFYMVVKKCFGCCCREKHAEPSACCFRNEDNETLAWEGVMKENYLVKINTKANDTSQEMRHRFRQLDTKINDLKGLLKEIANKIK

`O=C(C(c1ccc(C(F)(F)F)cc1)N1CCc2ccccc21)N1CCCC1c1ccccc1F` (stereo not drawn) [Cpd 228] gave an IC50 of 25.4 nM.

`CN(c1ccccc1F)C(C(=O)N1Cc2ccccc2C1)c1ccc(C(F)(F)F)cc1` (stereo not drawn) [Cpd 229] was tested, and the IC50 was 44.4 nM.

With `O=C(C(c1ccc(C(F)(F)F)cc1)N1CCc2ccccc21)N1Cc2ccccc2C1` (stereo not drawn) [Cpd 230] the IC50 was 105 nM.

`CN(c1ccccc1F)C(C(=O)N1CCCC1c1ccccc1F)c1ccc(C(F)(F)F)cc1` (stereo not drawn) [Cpd 233] was tested, and the “% Inh @ 0.2 μM” value was 10%.

Work on `O=C(C(Cc1c(F)cccc1F)c1ccc(C(F)(F)F)cc1)N1CCCC1c1ccccc1F` (stereo not drawn) [Cpd 244, 3-(2,6-Difluoro-phenyl)-1-[2-(2-fluoro-phenyl)-pyrrolidin-1-yl]-2-(4-trifluoromethyl-phenyl)-propan-1-one] yielded an inhibition at 0.2 µM of 98% and an IC50 of 16.7 nM.

With `O=C(C(Nc1ccccc1F)c1ccc2ncccc2c1)N1CCCC1c1ccccc1F` (stereo not drawn) [Cpd 248] the inhibition at 0.2 µM was 94% and the IC50 was 12.3 nM.

`O=C(C(Cc1cccc(F)c1F)c1ccc(C(F)(F)F)cc1)N1CCCC1c1ccccc1F` (stereo not drawn) [Cpd 253] showed an inhibition at 0.2 µM of 89% and an IC50 of 65.8 nM.

In the case of `O=C(C(Oc1ccccc1F)c1ccc(C(F)(F)F)cc1)N1CCCC1c1ccccc1F` (stereo not drawn) [Cpd 263, 2-(2-Fluoro-phenoxy)-1-[2-(2-fluoro-phenyl)-pyrrolidin-1-yl]-2-(4-trifluoromethyl-phenyl)-ethanone], the inhibition at 0.2 µM is reported as 84% and the IC50 is reported as 110 nM.

Work on `O=C(C(Nc1ccccc1)c1cnc2ccccc2c1)N1CCCC1c1ccccc1F` (stereo not drawn) [Cpd 264] yielded an inhibition at 0.2 µM of 93% and an IC50 of 43 nM.

Work on `Nc1ccc(C2CCCN2C(=O)C(Nc2ccccc2F)c2ccc(C(F)(F)F)cc2)cc1` (stereo not drawn) [Cpd 266] yielded an inhibition at 0.2 µM of 100% and an IC50 of 2 nM.

With `O=C(C(Cc1c(F)cccc1F)c1ccc(C(F)(F)F)cc1)N1CCCC1c1ccccc1Cl` (stereo not drawn) [Cpd 267] the inhibition at 0.2 µM was 98% and the IC50 was 30 nM.

Work on `CN(C)c1ccc(C2CCCN2C(=O)C(Nc2ccccc2F)c2ccc(Br)cc2)cc1` (stereo not drawn) [Cpd 271] yielded an inhibition at 0.2 µM of 90% and an IC50 of 89 nM.

Compound `CN(C)c1ccc(C2CCCN2C(=O)C(Nc2ccccc2F)c2ccc(Cl)cc2)cc1` (stereo not drawn) [Cpd 272] has an inhibition at 0.2 µM of 96% and an IC50 of 110 nM.

`CN(C)c1ccc(C2CCCN2C(=O)C(Nc2c(F)cccc2F)c2ccc(Cl)cc2)cc1` (stereo not drawn) [Cpd 273] was tested, and the inhibition at 0.2 µM was 98% and the IC50 was 104 nM.

`O=C(C(Nc1ccccc1F)c1cnc2ccccc2c1)N1CCCC1c1ccccc1F` (stereo not drawn) [Cpd 281] was tested, and the inhibition at 0.2 µM was 89% and the IC50 was 94 nM.

For `O=C(C(Nc1ccccc1F)c1ccc2cccnc2c1)N1CCCC1c1ccccc1F` (stereo not drawn) [Cpd 284], the “% Inh @ 0.2 μM” value (0.2 µM) was 95%, the inhibition at 0.2 µM was 92% and the IC50 was 20 nM and 26 nM.

With `O=C(C(Nc1ccccc1F)c1ccc(-c2cccnc2)cc1)N1CCCC1c1ccccc1F` (stereo not drawn) [Cpd 285, 2-(2-Fluoro-phenylamino)-1-[2-(2-fluoro-phenyl)-pyrrolidin-1-yl]-2-(4-pyridin-3-yl-phenyl)-ethanone] the “% Inh @ 0.2 μM” value (0.2 µM) was 96%, the inhibition at 0.2 µM was 91% and the IC50 was 12 nM and 15 nM.

`CCOC(=O)c1ccc(C(Nc2ccccc2F)C(=O)N2CCCC2c2ccccc2F)cc1` (stereo not drawn) [Cpd 287] was tested, and the inhibition at 0.2 µM was 92% and the IC50 was 27 nM.

For `O=C(C(Nc1ccccc1F)c1ccc(-c2cncnc2)cc1)N1CCCC1c1ccccc1F` (stereo not drawn) [Cpd 288], the “% Inh @ 0.2 μM” value (0.2 µM) was 95%, the inhibition at 0.2 µM was 91% and the IC50 was 9 nM and 10 nM.

In the case of `Nc1ccc(C2CCCN2C(=O)C(Nc2ccccc2F)c2ccc(Cl)cc2)cc1` (stereo not drawn) [Cpd 290], the inhibition at 0.2 µM is reported as 98% and the IC50 is reported as 2 nM.

`O=C(C(c1ccc(C(F)(F)F)cc1)N1CCCc2ccccc21)N1CCCC1c1ccccc1` (stereo not drawn) [Cpd 291] was tested, and the inhibition at 0.2 µM was 72% and the IC50 was 422 nM.

Work on `O=C(C(Nc1ccccc1F)c1ccc(N2CCOCC2)cc1)N1CCCC1c1ccccc1F` (stereo not drawn) [Cpd 293] yielded an inhibition at 0.2 µM of 86% and an IC50 of 11 nM.

With `O=C(C(Nc1ccccc1F)c1ccc(-c2ccncc2)cc1)N1CCCC1c1ccccc1F` (stereo not drawn) [Cpd 294] the “% Inh @ 0.2 μM” value (0.2 µM) was 102%, the inhibition at 0.2 µM was 92% and the IC50 was 22 nM and 27 nM.

For `O=C(O)c1ccc(-c2ccc(C(Nc3ccccc3F)C(=O)N3CCCC3c3ccccc3F)cc2)cc1` (stereo not drawn) [Cpd 295, 4′-{1-(2-Fluoro-phenylamino)-2-[2-(2-fluoro-phenyl)-pyrrolidin-1-yl]-2-oxo-ethyl}-biphenyl-4-carboxylic acid], the inhibition at 0.2 µM was 90% and the IC50 was 47 nM.

With `CC(C)(C)OC(=O)N1CC=C(c2ccc(C(Nc3ccccc3F)C(=O)N3CCCC3c3ccccc3F)cc2)CC1` (stereo not drawn) [Cpd 299, 4-(4-{1-(2-Fluoro-phenylamino)-2-[2-(2-fluoro-phenyl)-pyrrolidin-1-yl]-2-oxo-ethyl}-phenyl)-3,6-dihydro-2H-pyridine-1-carboxylic acid tert-butyl ester] the inhibition at 0.2 µM was 99% and the IC50 was 65 nM.

For `O=C(C(Nc1ccccc1F)c1ccc(-n2ccnc2)cc1)N1CCCC1c1ccccc1F` (stereo not drawn) [Cpd 301], the inhibition at 0.2 µM was 99% and the IC50 was 35 nM.

With `O=C(C(Nc1ccccc1F)c1ccc(C2=CCNCC2)cc1)N1CCCC1c1ccccc1F` (stereo not drawn) [Cpd 302, 2-(2-Fluoro-phenylamino)-1-[2-(2-fluoro-phenyl)-pyrrolidin-1-yl]-2-[4-(1,2,3,6-tetrahydro-pyridin-4-yl)-phenyl]-ethanone] the inhibition at 0.2 µM was 57%.

`Nc1cccc(C2CCCN2C(=O)C(Nc2ccccc2F)c2ccc(C(F)(F)F)cc2)c1` (stereo not drawn) [Cpd 305] was tested, and the inhibition at 0.2 µM was 101% and the IC50 was 2 nM.

`COC(=O)c1cccc(NC(C(=O)N2CCCC2c2ccccc2F)c2ccc3c(c2)CCO3)c1` (stereo not drawn) [Cpd 311] showed an inhibition at 0.2 µM of 99% and an IC50 of 51 nM.

For `CC(=O)Nc1cccc(C2CCCN2C(=O)C(Nc2ccccc2F)c2ccc(C(F)(F)F)cc2)c1` (stereo not drawn) [Cpd 316], the inhibition at 0.2 µM was 102% and the IC50 was 26 nM.

With `CC(=O)Nc1ccc(C2CCCN2C(=O)C(Nc2ccccc2F)c2ccc(C(F)(F)F)cc2)cc1` (stereo not drawn) [Cpd 317] the inhibition at 0.2 µM was 102% and the IC50 was 3 nM.

`CC(=O)N(c1ccccc1F)[C@H](C(=O)N1CCC[C@H]1c1ccccc1F)c1ccc(C(F)(F)F)cc1` [Cpd 318, N-(2-Fluoro-phenyl)-N-[2-[(2S)-2-(2-fluoro-phenyl)-pyrrolidin-1-yl]-2-oxo-(1S)-1-(4-trifluoromethyl-phenyl)-ethyl]-acetamide] was tested, and the inhibition at 0.2 µM was 47%.

`O=C(C(Nc1ccccc1F)c1cc2ccccc2s1)N1CCCC1c1cccnc1` (stereo not drawn) [Cpd 319] showed an inhibition at 0.2 µM of 94% and an IC50 of 25 nM.

For `O=C(C(Nc1ccccc1F)c1cc2ccccc2s1)N1CCCC1c1ccccn1` (stereo not drawn) [Cpd 321], the inhibition at 0.2 µM was 94% and the IC50 was 8 nM.

Compound `COC(=O)c1cccc(C2CCCN2C(=O)C(Nc2ccccc2F)c2cc3ccccc3s2)c1` (stereo not drawn) [Cpd 324, 3-{1-[2-Benzo[b]thiophen-2-yl-2-(2-fluoro-phenylamino)-acetyl]-pyrrolidin-2-yl}-benzoic acid methyl ester] has an inhibition at 0.2 µM of 101% and an IC50 of 28 nM.

`COC(=O)c1ccc(C2CCCN2C(=O)C(Nc2ccccc2F)c2cc3ccccc3s2)cc1` (stereo not drawn) [Cpd 325] was tested, and the inhibition at 0.2 µM was 101% and the IC50 was 62 nM.

For `O=C(O)c1cccc(C2CCCN2C(=O)C(Nc2ccccc2F)c2cc3ccccc3s2)c1` (stereo not drawn) [Cpd 326, 3-{1-[2-Benzo[b]thiophen-2-yl-2-(2-fluoro-phenylamino)-acetyl]-pyrrolidin-2-yl}-benzoic acid], the inhibition at 0.2 µM was 97% and the IC50 was 78 nM.

`O=C(C(Nc1ccccc1F)c1cc2cccnc2s1)N1CCCC1c1ccccc1F` (stereo not drawn) [Cpd 328] gave an inhibition at 0.2 µM of 101% and an IC50 of 8 nM.

In the case of `O=C(C(Nc1ccccc1F)c1ccc(-n2ccnc2)cc1)N1CCCC1c1ccccc1Cl` (stereo not drawn) [Cpd 342], the inhibition at 0.2 µM is reported as 100% and the IC50 is reported as 28 nM.

`O=C(C(Nc1ccccc1F)c1ccc(-c2cccnc2)cc1)N1CCCC1c1ccccc1Cl` (stereo not drawn) [Cpd 343] showed an inhibition at 0.2 µM of 101% and an IC50 of 17 nM.

`O=C(C(Nc1ccccc1F)c1ccc(C(F)(F)F)cc1)N1CCCC1c1cncc(Br)c1` (stereo not drawn) [Cpd 344] gave an inhibition at 0.2 µM of 98% and an IC50 of 44 nM.

`O=C(O)c1ccc(-c2ccc(C(Nc3ccccc3F)C(=O)N3CCCC3c3ccccc3Cl)cc2)cc1` (stereo not drawn) [Cpd 350] was tested, and the inhibition at 0.2 µM was 99% and the IC50 was 42 nM.

`COC(=O)c1ccc(C2CCCN2C(=O)C(Nc2ccccc2F)c2ccc3c(c2)CCO3)cc1` (stereo not drawn) [Cpd 351] gave an inhibition at 0.2 µM of 83% and an IC50 of 92 nM.

`COC(=O)c1ccc(C2CCCN2C(=O)C(Nc2ccccc2F)c2ccc(-c3ccccn3)cc2)cc1` (stereo not drawn) [Cpd 352] gave an inhibition at 0.2 µM of 88% and an IC50 of 115 nM.

For `O=C(C(Nc1ccccc1F)c1ccc(-c2ccc(-c3nnn[nH]3)cc2)cc1)N1CCC[C@H]1c1ccccc1F` (stereo partly drawn) [Cpd 354, 2-(2-Fluoro-phenylamino)-1-[(2S)-2-(2-fluoro-phenyl)-pyrrolidin-1-yl]-2-[4′-(1H-tetrazol-5-yl)-biphenyl-4-yl]-ethanone], the inhibition at 0.2 µM was 53%.

With `O=C(C(Nc1ccccc1F)c1ccc(N2CCOCC2)nc1)N1CCCC1c1ccccc1F` (stereo not drawn) [Cpd 359] the inhibition at 0.2 µM was 100% and the IC50 was 7 nM.

`O=C(C(Nc1c(F)cccc1F)c1cc2ccccc2s1)N1CCCC1c1ccccc1F` (stereo not drawn) [Cpd 361] gave an inhibition at 0.2 µM of 96% and an IC50 of 8 nM.

With `O=C(C(c1ccc(C(F)(F)F)cc1)N1CCCc2ccccc21)N1Cc2ccccc2C1` (stereo not drawn) [Cpd 363] the inhibition at 0.2 µM was 72% and the IC50 was 134 nM.

`O=C(C(Nc1ccccc1F)c1ccc(Cl)cc1)N1CCCc2ccccc21` (stereo not drawn) [Cpd 364] was tested, and the inhibition at 0.2 µM was 91% and the IC50 was 36 nM.

For `O=C(C(Nc1ccccc1F)c1ccc(Br)cc1)N1CCCc2ccccc21` (stereo not drawn) [Cpd 365], the inhibition at 0.2 µM was 94% and the IC50 was 30 nM.

`O=C(C(Nc1c(F)cccc1F)c1ccc(Cl)cc1)N1CCCc2ccccc21` (stereo not drawn) [Cpd 366] showed an inhibition at 0.2 µM of 98% and an IC50 of 46 nM.

With `O=C(C(Nc1ccccc1F)c1cc2ccccc2s1)N1Cc2cccnc2C1` (stereo not drawn) [Cpd 370] the IC50 was 120 nM.

Work on `O=C(C(Nc1ccccc1F)c1cnc2ccccc2c1)N1Cc2ccccc2C1` (stereo not drawn) [Cpd 371] yielded an IC50 of 100 nM.

`O=C(C(Nc1ccccc1F)c1cnc2ccccc2c1)N1CCCC1c1ccccc1Cl` (stereo not drawn) [Cpd 373] gave an IC50 of 6 nM.
